Columns and labels:
Format in all cases: in vivo
[1] = test system: Phakopsora pachyrhizi; assay: Test A: Asian soybean rust control on soybean seedlings; details: sprayed to run-off on soybean seedlings, inoculated the following day, 100 = 100% disease control, 0 = no control
In short: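 Compounds in acetone/water (50/50) with 250 ppm PEG400 were sprayed to run-off on soybean seedlings, which were inoculated with P. pachyrhizi spores the next day. Plants were held in saturated atmosphere at 22° C for 24 h, then 8 days at 22° C, before visual rating (0–100% disease control vs controls).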

[2] = test system: Zymoseptoria tritici; assay: Test B: wheat leaf blotch control on wheat seedlings; details: sprayed to run-off on wheat seedlings, inoculated the following day, 100 = 100% disease control, 0 = no control
Description: General protocol for preparing test suspensions for Tests A-C: the test compounds were first dissolved in acetone in an amount equal to 3% of the final volume and then suspended at the desired concentration (in ppm) in acetone and purified water (50/50 mix by volume) containing 250 ppm of the surfactant PEG400 (polyhydric alcohol esters). The resulting test suspensions were then used in Tests A-C. The test solution was sprayed to the point of run-off on wheat seedlings. The following day the seedlings were inoculated with a spore suspension of Zymoseptoria tritici (the causal agent of wheat leaf blotch) and incubated in a saturated atmosphere at 24° C. for 48 h, and then moved to a growth chamber at 20° C. for 17 days, after which time disease ratings were made. Results for Tests A-C are given in Table A. In the Table, a rating of 100 indicates 100% disease control and a rating of 0 indicates no disease control (relative to the controls). A dash (-) indicates the compound was not tested.

[3] = test system: Puccinia recondita f. sp. tritici; assay: Test C: wheat leaf rust control on wheat seedlings; details: sprayed to run-off on wheat seedlings, inoculated the following day, 100 = 100% disease control, 0 = no control
In short: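 Wheat seedlings were sprayed to run-off with compound suspension (ppm, acetone/water with 250 ppm PEG400), then inoculated with Puccinia recondita f. sp. tritici spores the next day. Plants were held 24 h in saturated atmosphere at 20 °C, then 6 days in a 20 °C growth chamber. Disease control is rated 0-100% relative to untreated controls.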

[4] = 250 ppm (incl. values marked * = tested at 250 ppm)

Structure (SMILES) | Test B disease control rating [2, 4] | Test A disease control rating ([1]; 250 ppm) [%] | Test C disease control rating ([3]; 250 ppm) [%] | further results
O=C(OCc1cccc(-c2noc(C(F)(F)F)n2)c1)n1ccnc1 [Compound 123] | 0% | – | – | pest or weed control at 250 ppm ([1]; Phakopsora pachyrhizi, 216 h, 250 ppm, read-out: Test A disease control rating): 100%; pest or weed control at 250 ppm ([3]; Puccinia recondita, 168 h, 250 ppm, read-out: Test C disease control rating): 96%
C#CCN(C)C(=O)OCc1ccc(-c2noc(C(F)(F)F)n2)cc1 [Compound 32] | 0* % | – | – | Test A disease control rating ([1]; 10 ppm): 100%; Test C disease control rating ([3]; 10 ppm): 68%
CN(C)C(=O)OCc1cccc(-c2noc(C(F)(F)F)n2)c1 [Compound 99] | 0% | 0 | 55 | –
NC(=O)OCc1ccc(-c2noc(C(F)(F)F)n2)cc1Cl [Compound 86] | 94% | 100 | 100 | –
C=C(C)CNC(=O)OC(c1ccc(C)cc1)c1ccc(-c2noc(C(F)(F)F)n2)cc1 (stereo not drawn) [Compound 146] | 21% | 100 | 97 | –
C=C(C)CNC(=O)OCc1cccc(-c2noc(C(F)(F)F)n2)c1 [Compound 98] | 3% | 100 | 100 | –
CCC(C)NC(=O)OCc1ccc(-c2noc(C(F)(F)F)n2)cc1 (racemic) [Compound 14] | 84% | 100 | 100 | –
CCNC(=O)OC(c1ccc(F)cc1)c1ccc(-c2noc(C(F)(F)F)n2)cc1 (stereo not drawn) [Compound 114] | 9% | 100 | 100 | –
CN(C)C(=O)OC(c1ccc(-c2noc(C(F)(F)F)n2)cc1)c1cccc(F)c1 (stereo not drawn) [Compound 134] | 50% | 100 | 89 | –
CC(C)(OC(N)=O)c1ccc(-c2noc(C(F)(F)F)n2)cc1 [Compound 87] | 99% | 100 | 100 | –
CNC(=O)OCCc1ccc(-c2noc(C(F)(F)F)n2)cc1 [Compound 42] | – | – | – | Test A disease control rating ([1]; 10 ppm): 100%; Test B disease control rating ([2]; 10 ppm): 0%; Test C disease control rating ([3]; 10 ppm): 99%
Cc1ccc(C(OC(=O)n2ccnc2)c2ccc(-c3noc(C(F)(F)F)n3)cc2)cc1 (stereo not drawn) [Compound 100] | 98% | 100 | 97 | –
C#CCNC(=O)OC(c1ccc(-c2noc(C(F)(F)F)n2)cc1)c1cccc(Cl)c1 (stereo not drawn) [Compound 104] | 84% | 100 | 80 | –
CNC(=O)OC(c1ccc(C)cc1)c1ccc(-c2noc(C(F)(F)F)n2)cc1 (stereo not drawn) [Compound 144] | 0% | 100 | 100 | –
CCNC(=O)OC(c1ccc(-c2noc(C(F)(F)F)n2)cc1)c1cccc(Cl)c1 (stereo not drawn) [Compound 103] | 20% | 100 | 86 | –
CC(C)CNC(=O)OC(c1ccccc1)c1ccc(-c2noc(C(F)(F)F)n2)cc1 (stereo not drawn) [Compound 140] | 34% | 100 | 86 | –
CC(OC(=O)N(C)C)c1ccc(-c2noc(C(F)(F)F)n2)cc1 (stereo not drawn) [Compound 72] | 0* % | – | – | Test A disease control rating ([1]; 10 ppm): 100%; Test C disease control rating ([3]; 10 ppm): 55%

Structure (SMILES) | Test B disease control rating [2, 4] | Test A disease control rating ([1]; 250 ppm) [%] | Test C disease control rating ([3]; 250 ppm) [%] | further results
NC(=O)OC(c1ccc(F)cc1)c1ccc(-c2noc(C(F)(F)F)n2)cc1 (stereo not drawn) [Compound 112] | 85% | 100 | 100 | –
NC(=O)OC(c1ccc(-c2noc(C(F)(F)F)n2)cc1)c1cccc(F)c1 (stereo not drawn) [Compound 131] | 96% | 100 | 100 | –
CN(C)C(=O)OCc1ccc(-c2noc(C(F)(F)F)n2)cc1 [Compound 6] | – | – | – | Test A disease control rating ([1]; 260 ppm): 100%; Test B disease control rating ([2]; 260 ppm): 76%; Test C disease control rating ([3]; 260 ppm): 100%
CCCNC(=O)OCc1ccc(-c2noc(C(F)(F)F)n2)cc1 [Compound 10] | 97% | 100 | 100 | –
O=C(OC(c1ccc(F)cc1)c1ccc(-c2noc(C(F)(F)F)n2)cc1)n1ccnc1 (stereo not drawn) [Compound 127] | 99% | 100 | 100 | –
C#CCCNC(=O)OCc1ccc(-c2noc(C(F)(F)F)n2)cc1 [Compound 33] | 0* % | – | – | Test A disease control rating ([1]; 10 ppm): 100%; Test C disease control rating ([3]; 10 ppm): 100%
CCCNC(=O)OCc1ccc(-c2noc(C(F)(F)F)n2)s1 [Compound 46] | 97* % | – | – | Test A disease control rating ([1]; 10 ppm): 99%; Test C disease control rating ([3]; 10 ppm): 97%
NC(=O)OCc1ccc(-c2noc(C(F)(F)F)n2)cc1F [Compound 85] | 98% | 100 | 100 | –
CNC(=O)OC(c1ccc(-c2noc(C(F)(F)F)n2)cc1)c1cccc(F)c1 (stereo not drawn) [Compound 132] | 95% | 100 | 100 | –
C#CCNC(=O)OC(C)c1ccc(-c2noc(C(F)(F)F)n2)cc1 (stereo not drawn) [Compound 76] | 0* % | – | – | Test A disease control rating ([1]; 10 ppm): 100%; Test C disease control rating ([3]; 10 ppm): 99%
NC(=O)OC(c1ccc(-c2noc(C(F)(F)F)n2)cc1)c1cccc(Cl)c1 (stereo not drawn) [Compound 101] | 90% | 100 | 99 | –
CCOC(=O)NC(=O)OCCc1ccc(-c2noc(C(F)(F)F)n2)cc1 [Compound 78] | – | – | – | Test A disease control rating ([1]; 10 ppm): 100%; Test B disease control rating ([2]; 10 ppm): 95%; Test C disease control rating ([3]; 10 ppm): 91%
NC(=O)OCc1cccc(-c2noc(C(F)(F)F)n2)c1 [Compound 93] | 97% | 100 | 100 | –
CNC(=O)OC(c1ccc(-c2noc(C(F)(F)F)n2)cc1)c1ccccc1C (stereo not drawn) [Compound 129] | 74% | 100 | 100 | –
C#CCNC(=O)OCc1ccc(-c2noc(C(F)(F)F)n2)cc1 [Compound 12] | – | – | – | Test A disease control rating ([1]; 265 ppm): 100%; Test B disease control rating ([2]; 265 ppm): 100%; Test C disease control rating ([3]; 265 ppm): 100%
Cc1ccccc1C(OC(N)=O)c1ccc(-c2noc(C(F)(F)F)n2)cc1 (stereo not drawn) [Compound 128] | 88% | 100 | 100 | –

Source: patent publication US11540518B2, “Fungicidal oxadiazoles” (FMC Corporation, priority 2017, dated 2023)
